Measured values published in US20250205369A1, “DENDRIMER COMPOSITIONS AND USE IN TREATMENT OF NEUROLOGICAL AND CNS DISORDERS” (THE JOHNS HOPKINS UNIVERSITY, priority 2014, published 2025).

How the values were obtained:
[1] = test system: MeCP2-null mice; assay: NAC and D-NAC therapy in MeCP2-null (RTT) mice: survival, behavior, appearance; format: in vivo; settings: MeCP2-null pups
Method: Detailed materials and methods used in the experiments below, including protocols for making the dendrimers-Cy5 and dendrimers-drug conjugates, have been described by Kannan S et al Sci. Transl. Med., 4:130ra46 (2012) and in U.S. Pat. No. 8,889,101.
RTT mice were the Adrian Bird model available from Jackson Laboratory.
Weight and behavior were also assessed. Cytokines were measured using standard mice primers for the assessment of inflammatory markers (Kannan S et al Sci. Transl. Med., 4:130ra46 (2012)).
Conjugation of dendrimer conjugates. The conjugation of dendrimers to Cy5 was done using previously reported methods (Kannan et al., Science Trans. Med (April 2012). For drug experiments, dendrimers were conjugated to N-acetyl-cysteine and administered at doses ranging from 2-20 mg/kg at differing time points.
The mice were injected with D-drug or PBS every 3-4 days, Statistical analysis. The data was analyzed for the reproducibility using Student's t-test to determine the significance between two groups. A p-value equal to or less than 0.05 was considered significant.
Animals were videotaped prior to treatment every 3-4 days, and mobility, gait, tremors, paw clenching, paw clenching time, paw wringing, and respiration were all scored on a scale of 0-3, where ‘0’ indicates the worst score and ‘3’ is best or normal. […]

[2] = test system: LPS-induced brain injury in a neonatal rabbit model of cerebral palsy; assay: LPS-induced brain injury in neonatal rabbit model of cerebral palsy; format: in vivo
Method: The therapeutic efficacy of GA-PAMAM-S-S-NAC dendrimer conjugate was evaluated after two days of animal treatment with lipopolysaccharide (LPS) to induce white matter injury and hypomyelination in the developing rabbit brain (an animal model of Cerebral Palsy).

[3] = test system: microglial cells; assay: GSH depletion, ROS, NO, H2O2 and nitrite in microglial cells; format: cell-based; settings: highest concentration (5 mM)
[4] = test system: plasma protein; settings: free drug; cited from earlier work

## CC(=O)N[C@@H](CS)C(=O)O [NAC, N-acetyl cysteine]
[1]; twice weekly therapy
  Safety / toxicity from survival: potential toxicity
[1]; twice weekly, 10 mg/kg (NAC basis) from PND21
  Survival (Kaplan-Meier) compared to non-treated animals: worse survival than non-treated Rett mice
[2]; free NAC vs conjugate
  Dose eliciting identical responses: 100 mg/kg
[2]; rabbit kits
  Fetal inflammation response and motor deficits compared to saline-treated kits: decrease in fetal inflammation response with improvement of motor deficits
[3]
  Reduction of H2O2 levels: 30-40%
  Reduction of nitrite levels: 30-40%
[4]
  Plasma protein binding: very high plasma protein binding
